Converted amounts (≈) assume the structure as drawn.
How the values were obtained:
[1] = test system: Mycobacterium tuberculosis; assay: Antitubercular activity against Mycobacterium tuberculosis assessed as reduction in microbial growth by broth dilution method; format: functional
[2] = test system: Mycobacterium marinum; assay: Antitubercular activity against Mycobacterium marinum assessed as reduction in microbial growth by broth dilution method; format: functional
[3] = Solubility of the compound at pH 2.0; format: physicochemical; settings: buffer
[4] = Intrinsic clearance in mouse liver microsomes; format: ADME, Microsome; settings: read-out: CLH
[5] = Lipophilicity, log D of the compound at pH 7.4; format: physicochemical; settings: buffer
[6] = Half life in mouse liver microsomes; format: ADME, Microsome
[7] = Solubility of the compound at pH 6.5; format: physicochemical; settings: buffer

Structure (SMILES): Cn1nnnc1SCC(=O)N1CCCCC1
- MIC90 [1]: > 100 µg/mL
- MIC90 [2]: > 100 µg/mL

Structure (SMILES): Cn1nnnc1S(=O)(=O)CC(=O)NC1CCCCC1
- MIC90 [1]: 6.25 µg/mL
- MIC90 [2]: 12.5 µg/mL

Structure (SMILES): CC1CCN(C(=O)CSc2nnnn2-c2ccccc2)CC1
- MIC90 [1]: > 50 µg/mL
- MIC90 [2]: > 100 µg/mL

Structure (SMILES): O=C(CS(=O)(=O)c1nnnn1-c1ccccc1)N1CCCC1
- MIC90 [1]: 20 µg/mL
- MIC90 [2]: > 100 µg/mL

Structure (SMILES): O=C(CS(=O)(=O)c1nnc2ncccn12)N1CCCCC1
- MIC90 [1]: > 100 µg/mL
- MIC90 [2]: > 100 µg/mL

Structure (SMILES): O=C(CS(=O)(=O)c1nnnn1-c1ccccc1)N1CCCCC1
- MIC90 [1]: 10 µg/mL
- MIC90 [2]: 100 µg/mL

Structure (SMILES): CC1CCN(C(=O)CS(=O)(=O)c2nc(-c3ccc(Cl)cc3)n[nH]2)CC1
- MIC90 [1]: > 100 µg/mL
- MIC90 [2]: > 100 µg/mL

Structure (SMILES): CN(C(=O)CS(=O)(=O)c1nc(O)nn1C)c1ccccc1
- MIC90 [1]: > 100 µg/mL
- MIC90 [2]: > 100 µg/mL

Structure (SMILES): CN(C(=O)CSc1nnnn1-c1ccccc1)c1ccccc1
- MIC90 [1]: > 100 µg/mL
- MIC90 [2]: > 100 µg/mL

Structure (SMILES): Cn1nnnc1S(=O)(=O)CC(=O)N1CCCCCC1
- MIC90 [1]: 1.25 µg/mL
- MIC90 [2]: 100 µg/mL

Structure (SMILES): O=C(CSc1nnnn1-c1ccccc1)N1CCCC1
- MIC90 [1]: 50 µg/mL
- MIC90 [2]: 100 µg/mL

Structure (SMILES): O=C(CS(=O)(=O)c1nnnn1-c1ccccc1)N1CCN(c2ccccc2)CC1
- MIC90 [1]: 10 µg/mL
- MIC90 [2]: 100 µg/mL

Structure (SMILES): Cn1nnnc1S(=O)(=O)CC(=O)N1CCCC1
- MIC90 [1]: 6.25 µg/mL
- MIC90 [2]: 12.5 µg/mL

Structure (SMILES): CN(C(=O)CS(=O)(=O)c1nnnn1-c1ccccc1)c1ccccc1
- MIC90 [1]: 10 µg/mL
- MIC90 [2]: 50 µg/mL

Structure (SMILES): COc1cccc(-c2n[nH]c(S(=O)(=O)CC(=O)N3CCC(C)CC3)n2)c1
- MIC90 [1]: > 100 µg/mL
- MIC90 [2]: > 100 µg/mL

Structure (SMILES): CCN(CC)C(=O)CS(=O)(=O)c1nnnn1C
- MIC90 [1]: 10 µg/mL
- MIC90 [2]: 100 µg/mL

Structure (SMILES): CN(C(=O)C[S+]([O-])c1nnnn1-c1ccccc1)c1ccccc1 (centres undefined)
- MIC90 [1]: 50 µg/mL
- MIC90 [2]: 100 µg/mL

Structure (SMILES): O=C(CS(=O)(=O)c1nnnn1-c1ccccc1)NC1CCCCC1
- MIC90 [1]: 100 µg/mL
- MIC90 [2]: 100 µg/mL

Structure (SMILES): O=C(CS(=O)(=O)c1nnc2ncccn12)N1CCN(c2ccccc2)CC1
- MIC90 [1]: > 100 µg/mL
- MIC90 [2]: > 100 µg/mL

Structure (SMILES): CC1CCCCN1C(=O)CS(=O)(=O)c1nnnn1C (centres undefined)
- MIC90 [1]: 3.13 µg/mL
- MIC90 [2]: 25 µg/mL

Structure (SMILES): CC1CCN(C(=O)C[S+]([O-])c2nnnn2-c2ccccc2)CC1 (centres undefined)
- MIC90 [1]: 25 µg/mL
- MIC90 [2]: 100 µg/mL

Structure (SMILES): Cn1nnnc1S(=O)(=O)CC(=O)N1CCN(c2ccccc2)CC1
- MIC90 [1]: 1.25 µg/mL
- MIC90 [2]: 10 µg/mL
- solubility [3]: 50 mg/mL (≈ 143 mM)
- microsomal CLint [4]: 85 µL/min/mg
- logD [5]: 4.8
- half-life [6]: 0.333 h
- solubility [7]: 25 mg/mL (≈ 71.3 mM)

Structure (SMILES): Cn1nnnc1S(=O)(=O)CC(=O)N1CCCCC1
- MIC90 [1]: 1.56 µg/mL
- MIC90 [2]: 12.5 µg/mL
- solubility [3]: > 100 mg/mL
- microsomal CLint [4]: 10 µL/min/mg
- logD [5]: 1.6
- half-life [6]: 2.93 h
- solubility [7]: > 100 mg/mL

Structure (SMILES): CC1CCN(C(=O)CS(=O)(=O)c2nnnn2-c2ccccc2)CC1
- MIC90 [1]: 12.5 µg/mL
- MIC90 [2]: 100 µg/mL

Structure (SMILES): CN(C(=O)CS(=O)(=O)c1nnnn1C)c1ccccc1
- MIC90 [1]: 2.5 µg/mL
- MIC90 [2]: 100 µg/mL

Structure (SMILES): CCN(CC)C(=O)CS(=O)(=O)c1nnnn1-c1ccccc1
- MIC90 [1]: 20 µg/mL
- MIC90 [2]: > 100 µg/mL

Structure (SMILES): CCC1CCCCN1C(=O)CS(=O)(=O)c1nnnn1C (centres undefined)
- MIC90 [1]: 2.5 µg/mL
- MIC90 [2]: 100 µg/mL

Structure (SMILES): Cn1nnnc1SCC(=O)N1CCCC1
- MIC90 [1]: > 100 µg/mL
- MIC90 [2]: > 100 µg/mL

Structure (SMILES): CC1CCN(C(=O)CS(=O)(=O)c2nnnn2C)CC1
- MIC90 [1]: 1.56 µg/mL
- MIC90 [2]: 12.5 µg/mL

Structure (SMILES): CC1CCCCN1C(=O)CS(=O)(=O)c1nnnn1-c1ccccc1 (centres undefined)
- MIC90 [1]: 12.5 µg/mL
- MIC90 [2]: 100 µg/mL

Structure (SMILES): CC1CCCN(C(=O)CS(=O)(=O)c2nnnn2C)C1 (centres undefined)
- MIC90 [1]: 6.25 µg/mL
- MIC90 [2]: 25 µg/mL

Structure (SMILES): CO[C@H]1/C=C/O[C@@]2(C)Oc3c(C)c(O)c4c(O)c(c(/C=N/N5CCN(C)CC5)c(O)c4c3C2=O)NC(=O)/C(C)=C\C=C\[C@H](C)[C@H](O)[C@@H](C)[C@@H](O)[C@@H](C)[C@H](OC(C)=O)[C@@H]1C [RIFAMPIN]
- MIC90 [1]: 0.06 µg/mL
- MIC90 [2]: 0.2 µg/mL

Reference: ChEMBL document CHEMBL5365404, “Synthesis and biological evaluation of 2-(Tetrazol-5-yl)sulfonylacetamides as inhibitors of Mycobacterium tuberculosis and Mycobacterium marinum” (Bioorg Med Chem Lett, 2023)
